For this assay, the target named is C-Raf FL (full length CRAF with Y340E and Y341E activating mutations, co-expressed with h14-3-3 zeta) (Homo sapiens (Human), UniProt P04049, Y340E/Y341E). Briefly: In vitro Raf activity determination, AlphaScreen p-MEK readout, c-Raf (C-Raf FL). It is filed as biochemical. The conditions noted are these: c-Raf approximately 4 nM, ATP 1 μM, pre-incubation 60 minutes, reaction 1 hour. The method, boiled down: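 Phosphorylation of kinase-dead biotinylated MEK1 (~10 nM) by C-Raf FL (~4 nM) read by AlphaScreen luminescence with anti-phospho-MEK1/2 after EDTA stop. ATP was 1 μM, with a 1 h reaction at room temperature. Compounds were pre-incubated with enzyme and substrate for 60 min in Tris/MgCl2 buffer, pH 7.5.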

pIC50: −log10 of the molar value.

Chain of C-Raf FL (full length CRAF with Y340E and Y341E activating mutations, co-expressed with h14-3-3 zeta) (P04049 whole entry Y340E/Y341E): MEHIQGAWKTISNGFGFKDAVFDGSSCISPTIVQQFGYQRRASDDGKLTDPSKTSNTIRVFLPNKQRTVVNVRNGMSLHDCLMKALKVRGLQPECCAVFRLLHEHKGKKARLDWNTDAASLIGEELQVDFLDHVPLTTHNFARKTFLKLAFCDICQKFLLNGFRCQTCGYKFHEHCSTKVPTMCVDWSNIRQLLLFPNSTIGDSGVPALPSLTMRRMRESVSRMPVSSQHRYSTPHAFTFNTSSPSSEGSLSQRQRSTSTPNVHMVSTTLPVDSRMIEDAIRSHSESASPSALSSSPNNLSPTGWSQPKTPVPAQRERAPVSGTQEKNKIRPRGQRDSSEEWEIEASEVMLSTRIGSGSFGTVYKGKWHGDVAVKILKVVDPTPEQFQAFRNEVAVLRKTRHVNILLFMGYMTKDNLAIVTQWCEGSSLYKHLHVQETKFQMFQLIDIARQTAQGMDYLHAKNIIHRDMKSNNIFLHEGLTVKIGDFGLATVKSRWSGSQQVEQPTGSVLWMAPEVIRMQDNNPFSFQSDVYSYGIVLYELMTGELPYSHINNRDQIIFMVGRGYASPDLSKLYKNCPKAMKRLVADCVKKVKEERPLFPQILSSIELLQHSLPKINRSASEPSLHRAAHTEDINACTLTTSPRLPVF
Chain of C-Raf FL (full length CRAF with Y340E and Y341E activating mutations, co-expressed with h14-3-3 zeta) (P63104 whole entry partner): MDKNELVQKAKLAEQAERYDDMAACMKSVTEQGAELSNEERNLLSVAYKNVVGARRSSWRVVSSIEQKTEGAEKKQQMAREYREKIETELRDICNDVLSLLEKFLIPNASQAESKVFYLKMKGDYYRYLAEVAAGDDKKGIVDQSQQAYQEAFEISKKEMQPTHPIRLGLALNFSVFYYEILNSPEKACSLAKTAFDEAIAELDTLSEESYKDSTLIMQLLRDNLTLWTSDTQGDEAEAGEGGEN

For the molecule `Cc1ccc(NC(=O)c2cncc(C(F)(F)F)c2)cc1-c1ccc2c(c1)N1CCOC[C@H]1[C@](F)(CF)C2` [Example 469, N-(3-((4aS,5S)-5-fluoro-5-(fluoromethyl)-1,2,4,4a,5,6-hexahydro-[1,4]oxazino[4,3-a]quinolin-9-yl)-4-methylphenyl)-5-(trifluorometh-yl)nicotinamide], the pIC50 was 8.74. Next, `Cc1ncc(NC(=O)c2cncc(C(F)(F)F)c2)cc1-c1ccc2c(c1)N1CCOC[C@H]1[C@](F)(CF)C2` [Example 470, N-(5-((4aS,5S)-5-fluoro-5-(fluoromethyl)-1,2,4,4a,5,6-hexahydro-[1,4]oxazino[4,3-a]quinolin-9-yl)-6-methylpyridin-3-yl)-5-(trifluorometh-yl)nicotinamide]: 8.66; `Cc1ncc(NC(=O)c2ccnc(C(F)(F)F)c2)cc1-c1ccc2c(c1)N1CCOC[C@H]1[C@](F)(CF)C2` [Example 471, N-(5-((4aS,5S)-5-fluoro-5-(fluoromethyl)-1,2,4,4a,5,6-hexahydro-[1,4]oxazino[4,3-a]quinolin-9-yl)-6-methylpyridin-3-yl)-2-(trifluoromethyl)iso-nictonamide]: 8.92.

`Cc1ccc(NC(=O)c2ccnc(C(F)(F)F)c2)cc1-c1ccc2c(c1)N1CCOC[C@H]1[C@](F)(CF)C2` [Example 472, N-(3-((4aS,5S)-5-fluoro-5-(fluoromethyl)-1,2,4,4a,5,6-hexahydro-[1,4]oxazino[4,3-a]quinolin-9-yl)-4-methylphenyl)-2-(trifluoromethyl)iso-nicotinamide] gave a pIC50 of 8.70. To `Cc1ccc(NC(=O)c2ccnc(C(C)(F)F)c2)cc1-c1ccc2c(c1)N1CCOC[C@H]1[C@](F)(CF)C2` [Example 473] belongs 8.82. To `Cc1ccc(NC(=O)c2ccnc(C(C)(C)C)c2)cc1-c1ccc2c(c1)N1CCOC[C@H]1[C@](F)(CF)C2` [Example 474, 2-(tert-butyl)-N-(3-((4aS,5S)-5-fluoro-5-(fluoromethyl)-1,2,4,4a,5,6-hexahydro-[1,4]oxazino[4,3-a]quinolin-9-yl)-4-methylphenyl)iso-nicotinamide] belongs 8.26. To `Cc1ccc(NC(=O)c2cnnc(C(F)(F)F)c2)cc1-c1ccc2c(c1)N1CCOC[C@H]1[C@](F)(CF)C2` [Example 475, N-(3-((4aS,5S)-5-fluoro-5-(fluoromethyl)-1,2,4,4a,5,6-hexahydro-[1,4]oxazino[4,3-a]quinolin-9-yl)-4-methylphenyl)-6-(trifluorometh-yl)pyridazine-4-carboxamide] belongs 9.40. The molecule `Cc1ccc(NC(=O)c2ccnc(C(C)(F)F)c2)cc1-c1cc2c(cc1F)C[C@](F)(CO)[C@H]1COCCN21` [Example 476, N-(3-((4aR,5R)-5,8-difluoro-5-(hydroxymethyl)-1,2,4,4a,5,6-hexahydro-[1,4]oxazino[4,3-a]quinolin-9-yl)-4-methylphenyl)-2-(1,1-difluoroethyl)iso-nicotinamide] gave a pIC50 of 9.70.

`Cc1ccc(NC(=O)c2cnnc(C(F)(F)F)c2)cc1-c1cc2c(cc1F)C[C@](F)(CO)[C@H]1COCCN21` [Example 477, N-(3-((4aR,5R)-5,8-difluoro-5-(hydroxymethyl)-1,2,4,4a,5,6-hexahydro-[1,4]oxazino[4,3-a]quinolin-9-yl)-4-methylphenyl)-6-(trifluoromethyl) pyridazine-4-carboxamide]: the pIC50 was 10.00. In the case of `Cc1ccc(NC(=O)c2ccnc(C(C)(C)F)c2)cc1-c1cc2c(cc1F)C[C@](F)(CO)[C@H]1COCCN21` [Example 478, N-(3-((4aR,5R)-5,8-difluoro-5-(hydroxymethyl)-1,2,4,4a,5,6-hexahydro-[1,4]oxazino[4,3-a]quinolin-9-yl)-4-methylphenyl)-2-(2-fluoropropan-2-yl)isonicotinamide], the pIC50 was 9.70. In turn, `Cc1ncc(NC(=O)c2cccc(C(F)(F)F)c2)cc1-c1cc2c(cc1F)C[C@](F)(CO)[C@H]1COCCN21` [Example 479, N-(5-((4aR,5R)-5,8-difluoro-5-(hydroxymethyl)-1,2,4,4a,5,6-hexahydro-[1,4]oxazino[4,3-a]quinolin-9-yl)-6-methylpyridin-3-yl)-3-(trifluoromethyl) benzamide] had a pIC50 of 9.40.

Turning to `Cc1ccc(NC(=O)c2ccnc(C(F)(F)F)c2)cc1-c1cc2c(cc1F)C[C@](F)(CO)[C@H]1COCCN21` [Example 480, N-(3-((4aR,5R)-5,8-difluoro-5-(hydroxymethyl)-1,2,4,4a,5,6-hexahydro-[1,4]oxazino[4,3-a]quinolin-9-yl)-4-methylphenyl)-2-(trifluoromethyl) isonicotinamide], the pIC50 is 9.70. Next, `Cc1ccc(NC(=O)c2ccnc(C(C)(F)F)c2)cc1-c1cc2c(cc1F)C[C@@](F)(CO)[C@@H]1COCCN21` [Example 481, N-(3-((4aS,5S)-5,8-difluoro-5-(hydroxymethyl)-1,2,4,4a,5,6-hexahydro-[1,4]oxazino[4,3-a]quinolin-9-yl)-4-methylphenyl)-2-(1,1-difluoroethyl)iso-nicotinamide]: 8.96. Molecule `Cc1ccc(NC(=O)c2cnnc(C(F)(F)F)c2)cc1-c1cc2c(cc1F)C[C@@](F)(CO)[C@@H]1COCCN21` [Example 482, N-(3-((4aS,5S)-5,8-difluoro-5-(hydroxymethyl)-1,2,4,4a,5,6-hexahydro-[1,4]oxazino[4,3-a]quinolin-9-yl)-4-methylphenyl)-6-(trifluoromethyl) pyridazine-4-carboxamide] had a pIC50 of 9.52. In turn, `Cc1ccc(NC(=O)c2ccnc(C(C)(C)F)c2)cc1-c1cc2c(cc1F)C[C@@](F)(CO)[C@@H]1COCCN21` [Example 483, N-(3-((4aS,5S)-5,8-difluoro-5-(hydroxymethyl)-1,2,4,4a,5,6-hexahydro-[1,4]oxazino[4,3-a]quinolin-9-yl)-4-methylphenyl)-2-(2-fluoropropan-2-yl)isonicotinamide] had a pIC50 of 9.00. Next, `Cc1ncc(NC(=O)c2cccc(C(F)(F)F)c2)cc1-c1cc2c(cc1F)C[C@@](F)(CO)[C@@H]1COCCN21` [Example 484, N-(5-((4aS,5S)-5,8-difluoro-5-(hydroxymethyl)-1,2,4,4a,5,6-hexahydro-[1,4]oxazino[4,3-a]quinolin-9-yl)-6-methylpyridin-3-yl)-3-(trifluoromethyl) benzamide]: 8.39; `Cc1ccc(NC(=O)c2ccnc(C(F)(F)F)c2)cc1-c1cc2c(cc1F)C[C@@](F)(CO)[C@@H]1COCCN21` [Example 485, N-(3-((4aS,5S)-5,8-difluoro-5-(hydroxymethyl)-1,2,4,4a,5,6-hexahydro-[1,4]oxazino[4,3-a]quinolin-9-yl)-4-methylphenyl)-2-(trifluoromethyl) isonicotinamide]: 9.52. To `Cc1ccc(NC(=O)c2cncc(C(F)(F)F)c2)cc1-c1cc2c(cc1F)C[C@@](F)(CO)[C@@H]1COCCN21` [Example 486, N-(3-((4aS,5S)-5,8-difluoro-5-(hydroxymethyl)-1,2,4,4a,5,6-hexahydro-[1,4]oxazino[4,3-a]quinolin-9-yl)-4-methylphenyl)-5-(trifluoromethyl) nicotinamide] belongs 8.80; to `Cc1ccc(NC(=O)c2cncc(C(F)(F)F)c2)cc1-c1cc2c(cc1F)C[C@](F)(CO)[C@@H]1COCCN21` [Example 487, N-(3-((4aS,5R)-5,8-difluoro-5-(hydroxymethyl)-1,2,4,4a,5,6-hexahydro-[1,4]oxazino[4,3-a]quinolin-9-yl)-4-methylphenyl)-5-(trifluoromethyl) nicotinamide], 9.15.

`Cc1ccc(NC(=O)c2cncc(C(F)(F)F)c2)cc1-c1cc2c(cc1F)C[C@](F)(CO)[C@H]1COCCN21` [Example 488, N-(3-((4aR,5R)-5,8-difluoro-5-(hydroxymethyl)-1,2,4,4a,5,6-hexahydro-[1,4]oxazino[4,3-a]quinolin-9-yl)-4-methylphenyl)-5-(trifluoromethyl) nicotinamide] gave a pIC50 of 9.52. For the molecule `Cc1ccc(NC(=O)c2cncc(C(F)(F)F)c2)cc1-c1cc2c(cc1F)C[C@@](F)(CO)[C@H]1COCCN21` [Example 489, N-(3-((4aR,5S)-5,8-difluoro-5-(hydroxymethyl)-1,2,4,4a,5,6-hexahydro-[1,4]oxazino[4,3-a]quinolin-9-yl)-4-methylphenyl)-5-(trifluoromethyl) nicotinamide], the pIC50 is 9.40. Molecule `Cc1ncc(NC(=O)c2cccc(C(F)(F)F)c2)cc1-c1cnc2c(c1)N1CCOC[C@H]1[C@@H](CO)C2` [Example 490, N-(5-((4aR,5S)-5-(hydroxymethyl)-1,2,4,4a,5,6-hexahydro-[1,4]oxazino[4,3-a][1,5]naphthyridin-9-yl)-6-methylpyridin-3-yl)-3 - (trifluoro-methyl)benzamide] had a pIC50 of 9.30.

The molecule `Cc1ccc(NC(=O)c2ccnc(C(C)(F)F)c2)cc1-c1cnc2c(c1)N1CCOC[C@H]1[C@@H](CO)C2` [Example 492, 2-(1,1-difluoroethyl)-N-(3-((4aR,5S)-5-(hydroxymethyl)-1,2,4,4a,5,6-hexahydro-[1,4]oxazino[4,3-a][1,5]naphthyridin-9-yl)-4-methylphenyl)iso-nicotinamide] gave a pIC50 of 9.70. To `Cc1ncc(NC(=O)c2cccc(C(F)(F)F)c2)cc1-c1cnc2c(c1)N1CCOC[C@@H]1[C@H](CO)C2` [Example 493, N-(5-((4aS,5R)-5-(hydroxymethyl)-1,2,4,4a,5,6-hexahydro-[1,4]oxazino[4,3-a][1,5]naphthyridin-9-yl)-6-methylpyridin-3-yl)-3-(trifluorometh-yl)benzamide] belongs 10.00. To `Cc1ccc(NC(=O)c2ccnc(C(F)(F)F)c2)cc1-c1cnc2c(c1)N1CCOC[C@@H]1[C@H](CO)C2` [Example 494, N-(3-((4aS,5R)-5-(hydroxymethyl)-1,2,4,4a,5,6-hexahydro-[1,4]oxazino[4,3-a][1,5]naphthyridin-9-yl)-4-methyphenyl)-2-(trifluoromethyl)iso-nicotinamide] belongs 10.00.
